Data taken from patent publication US7348351B2, “Substituted 3-alkyl and 3-arylalkyl 1H-indol-1yl acetic acid derivatives as inhibitors of plasminogen activator inhibitor-1 (PAI-1)” (Wyeth, priority 2002, dated 2008).

Experiments:
[1] = molecular target: T1, recombinant human plasminogen activator inhibitor-1 (Homo sapiens, UniProt P05121); test: Primary Screen for the PAI-1 Inhibition (residual tPA activity, chromogenic Spectrozyme-tPA); type: biochemical; details: 25 μM test compound; 140 nM PAI-1, 70 nM tPA, pH 6.6
T1 construct: purchased Molecular Innovations, Royal Oak, Mich
Protocol: Primary Screen for the PAI-1 Inhibition
Test compounds were dissolved in DMSO at a final concentration of 10 mM, then diluted 100× in physiologic buffer. The inhibitory assay was initiated by the addition of the test compound (1-100 μM final concentration, maximum DMSO concentration of 0.2%) in a pH 6.6 buffer containing 140 nM recombinant human plasminogen activator inhibitor-1 (Molecular Innovations, Royal Oak, Mich.). Following a 1 hour incubation at room temperature, 70 nM of recombinant human tissue plasminogen activator (tPA) was added, and the combination of the test compound, PAI-1 and tPA was incubated for an additional 30 minutes. Following the second incubation, Spectrozyme-tPA (American Diagnostica, Greenwich, Conn.), a chromogenic substrate for tPA, was added and absorbance read at 405 nm at 0 and 60 minutes. Relative PAI-1 inhibition is equal to the residual tPA activity in the presence of test compound and PAI-1. Control treatments included the complete inhibition of tPA by PAI-1 at the molar ratio employed (2:1), and the absence of any effect of the test compound on tPA alone.

human PAI-1 = human PAI-1 (Homo sapiens, UniProt P05121); test: Assay for Determining IC50 of Inhibition of PAI-1 (antibody detection of active PAI-1 bound to tPA-coated plate); type: biochemical; details: human PAI-1 50 ng/ml, pH 7.5, 33B8 monoclonal antibody detection
Protocol: Assay for Determining IC50 of Inhibition of PAI-1
This assay was based upon the non-SDS dissociable interaction between tPA and active PAI-1. Assay plates were initially coated with human tPA (10 μg/ml). The test compounds were dissolved in DMSO at 10 mM, then diluted with physiologic buffer (pH 7.5) to a final concentration of 1-50 μM. The test compounds were incubated with human PAI-1 (50 ng/ml) for 15 minutes at room temperature. The tPA-coated plate was washed with a solution of 0.05% Tween 20 and 0.1% BSA, then the plate was blocked with a solution of 3% BSA. An aliquot of the test compound/PAI-1 solution was then added to the tPA-coated plate, incubated at room temperature for 1 hour, and washed. Active PAI-1 bound to the plate was assessed by adding an aliquot of a 1:1000 dilution of the 33B8 monoclonal antibody against human PAI-1, and incubating the plate at room temperature for 1 hour (Molecular Innovations, Royal Oak, Mich.). […] The plate was incubated 45 minutes at room temperature, and color development was determined at OD405 nm. The quantitation of active PAI-1 bound to tPA at varying concentrations of the test compound was used to determine the IC50. Results are analyzed using a logarithmic best-fit equation. The assay sensitivity was 5 ng/ml of human PAI-1 as determined from a standard curve ranging from 0-100 ng/ml.

T1 sequence (P05121 24-402): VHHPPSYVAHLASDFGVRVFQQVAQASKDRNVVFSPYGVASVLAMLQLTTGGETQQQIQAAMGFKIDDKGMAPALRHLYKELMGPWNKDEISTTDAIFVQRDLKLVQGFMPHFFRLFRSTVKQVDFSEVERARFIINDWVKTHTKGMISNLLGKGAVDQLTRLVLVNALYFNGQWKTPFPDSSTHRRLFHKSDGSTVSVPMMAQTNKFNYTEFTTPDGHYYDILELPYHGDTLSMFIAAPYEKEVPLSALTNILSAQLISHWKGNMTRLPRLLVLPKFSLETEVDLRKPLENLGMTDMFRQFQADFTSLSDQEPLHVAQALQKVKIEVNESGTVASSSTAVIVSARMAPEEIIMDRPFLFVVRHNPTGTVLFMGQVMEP
human PAI-1, sequence (P05121 24-402): as above

## CC(C)c1ccc(Cc2cn(CC(=O)O)c3ccc(-c4cccc(C(F)(F)F)c4)cc23)cc1 [Example 9, [3-(4-Isopropyl-benzyl)-5-(3-trifluoromethyl-phenyl)-indol-1-yl]acetic acid]
[1]
  inhibition at 25 µM: 26%

## CC(c1cccs1)c1cn(CC(=O)O)c2ccc(-c3cccc(C(F)(F)F)c3)cc12 (centres unmarked) [Example 7, [3-(1-Thiophen-2-yl-ethyl)-5-(3-trifluoromethyl-phenyl)-indol-1-yl]acetic acid]
[1]
  inhibition at 25 µM: 47%

## CC(c1cn(CC(=O)O)c2ccc(-c3cccc(C(F)(F)F)c3)cc12)C1CCCCC1 (centres unmarked) [Example 8, [3-(1-Cyclohexyl-ethyl)-5-(3-trifluoromethyl-phenyl)-indol-1-yl]acetic acid]
[1]
  inhibition at 25 µM: 64%

## CC(c1ccccc1)c1cn(CC(=O)O)c2ccc(-c3cccc(C(F)(F)F)c3)cc12 (centres unmarked) [Example 6, [3-(1-Phenyl-ethyl)-5-(3-trifluoromethyl-phenyl)-indol-1-yl]acetic acid]
[1]
  inhibition at 25 µM: 49%

## CC(c1ccccc1)c1cn(CC(=O)O)c2ccc(-c3ccc(Cl)cc3Cl)cc12 (centres unmarked) [Example 11, [5-(2,4-Dichloro-phenyl)-3-(1-phenyl-ethyl)-indol-1-yl]-acetic acid]
[1]
  inhibition at 25 µM: 26%

## O=C(O)Cn1cc(Cc2cc(C(F)(F)F)cc(C(F)(F)F)c2)c2cc(-c3ccc(OC(F)(F)F)cc3)ccc21 [Example 2]
other
  melting point: 188 to 190 °C
Human PAI-1
  IC50: 15.1 µM
[1]
  inhibition at 25 µM: 31%

## O=C(O)Cn1cc(Cc2cc(C(F)(F)F)cc(C(F)(F)F)c2)c2cc(-c3ccc(Cl)cc3Cl)ccc21 [Example 3, [3-[3,5-bis(trifluoromethyl)benzyl]-5-(2,4-dichlorophenyl)-1H-indol-1-yl]acetic acid]
other
  melting point: 150 to 155 °C
[1]
  inhibition at 25 µM: 100%

## CC(C)CC(C)c1cn(CC(=O)O)c2ccc(-c3ccc(Cl)cc3Cl)cc12 (centres unmarked) [Example 10, [5-(2,4-Dichloro-phenyl)-3-(1,3-dimethyl-butyl)-indol-1-yl]-acetic acid]
[1]
  inhibition at 25 µM: 48%

## CC(c1cn(CC(=O)O)c2ccc(-c3ccc(Cl)cc3Cl)cc12)C1CCCCC1 (centres unmarked) [Example 12, [3-(1-Cyclohelxy-ethyl)-5-(2,4-dichloro-phenyl)-indol-1-yl]-acetic acid]
[1]
  % Inhibition @ 25 μM: 48%

## O=C(O)Cn1cc(Cc2cc(C(F)(F)F)cc(C(F)(F)F)c2)c2cc(-c3cccc(C(F)(F)F)c3)ccc21 [Example 4, {3-[3,5-bis(triflu romethyl)benzyl]-5-[3-(trifluoromethyl)phenyl]-1H-indol-1-yl}acetic acid]
other
  melting point: 175 to 176 °C
[1]
  inhibition at 25 µM: 35%
